The text below walks through data of publication PMC9781104 (Pharmaceutics, 2022).

Data set [1] can be described thus: Pharmacokinetic panel study in CYP2D6-genotyped healthy female volunteers (observed plasma AUClast/Cmax, DGI and DD(G)I with clarithromycin or paroxetine). In kind it is in vivo, human. On the procedure:
Clinical data from a recently performed pharmacokinetic panel study (EudraCT-Nr.: 2009-014531-20, ClinicalTrails.gov: NCT01289756) were used for PBPK model development. The study protocol, patient information sheet and consent form were approved by the Ethics Committee of the University of Tübingen and the German Federal Institute for Drugs and Medical Devices (BfArM). All study participants had signed an informed consent form.
The study was conducted in 20 healthy, Caucasian, premenopausal female volunteers that were genotyped for CYP2D6 polymorphisms and subsequently assigned to predicted phenotypes according to the respective CYP2D6 activity score (AS) as depicted in Table 1 [17, 18]. […] After a wash-out phase of at least three weeks, clomiphene was administered concomitantly with the strong CYP3A4 inhibitor clarithromycin [19]. Here, the participants received 500 mg clarithromycin twice daily for four days. On day 5, a single dose of clomiphene citrate was administered together with 500 mg clarithromycin. Finally, in the third period, all subjects received clomiphene citrate together with the strong CYP2D6 inhibitor paroxetine. Here, 40 mg paroxetine was administered once daily for two days. On day 3, participants received a single dose of clomiphene citrate concomitantly with 40 mg paroxetine (Figure 1).
For the evaluation of DGI and DD(G)I effects, the predicted AUClast and Cmax effect ratios were calculated according to Equations (4) and (5) and compared with the corresponding observed values. Here, model performance was assessed using the prediction acceptance limits proposed by Guest et al. with 1.25-fold variability. (4) AUClast, AS=i ratio=AUClast, effect, AS=i/AUClast, control (5) Cmax, AS=i ratio=Cmax, effect, AS=i/Cmax, control
For the calculation of DGI ratios, AUClast, effect, AS=i and Cmax, effect, AS=i represent the AUClast and Cmax for CYP2D6 AS = i, while AUClast, control and Cmax, control are the AUClast and Cmax values for the NM (AS = 2) population. For the calculation of DD(G)I ratios, AUClast, effect, AS=i and Cmax, effect, AS=i represent the AUClast and Cmax for the CYP2D6 AS = i in the DD(G)I scenario with clarithromycin or paroxetine, while AUClast, control and Cmax, control are the AUClast and Cmax values for the CYP2D6 AS = i without the concomitant use of perpetrator drugs.

Data set [2] concerns CYP2D6. Conditions: cited from earlier work; for Km: literature value adapted with fu,inc.
The next data set has as its system CYP3A4. Further details: method as in ref [17, 18] of supplement. Conditions: ref [17, 18] of supplement, cited from earlier work; for Km: literature value adapted with fu,inc.
The test system of data set [3] is CYP2D6. As to the kind of experiment: In vitro scaling factors from CYP2D6 activity score-specific in vitro metabolite formation rates. The class given is in vitro ADME, human. The text has this:
Here, kcat, AS=i represents the catalytic rate constant for CYP2D6 AS = i, kcat, AS=2 is the catalytic rate constant for the NM population and IVSFi is the corresponding in vitro scaling factor (IVSF).
S2. Drug-Gene-Interaction (DGI) Modeling
S2.1. CYP2D6 in vitro Scaling Factors
The estimated CYP2D6 kcat values for the NM population were extrapolated to the intermediate metabolizers (IM) (AS=0.5, AS=0.75 and AS=1) and ultrarapid metabolizers (UM) populations according to Equation 1 in the main manuscript, using in vitro scaling factors (IVSFs). Determination of IVSFs were based on AS-specific in vitro metabolite formation rates relative to the corresponding formation rate in NM as a reference. The respective IVSFs for each CYP2D6-dependent pathway are depicted in Table S8. Measured in vitro data for (E)-4-OH-Clom and (E)-4-OH-DE-Clom AS-specific formation rates were available, while mean values were assumed for the remaining CYP2D6-dependent metabolic pathways.
Table S8. Employed in vitro scaling factors (IVSFs) for individual CYP2D6 activity scores. […]

The conditions of data set [4]: [38] of supplement (ChemAxon Chemicalize), cited from earlier work; for Solubility (pH 6.5): ref [30]; for Solubility (pH 6.5) / pKa (base), literature: [34]; for pKa (base), literature: ref [23], [30].
On the set-up of data set [5]: method as in ref [35] of supplement. The settings on record: ref [35] of supplement; cited from earlier work.
The next data set deals with estrogen receptor. Conditions: read-out: half-maximal inhibitory concentration towards the estrogen receptor; cited from earlier work.
On the set-up of data set [6]: method as in PMID 22108178. Conditions: healthy female volunteers; cited from earlier work.
For data set [7] the following is noted: cited from earlier work.
Where [8] appears, read: ref [19] ((E)-Clom, (E)-4-OH-Clom), [17, 18] ((E)-DE-Clom) of supplement, read-out: CYP2D6 Km → undef.

Read-outs that look alike come from different tables or passages of the source.

For orientation: Km means the substrate concentration at which the rate is half of its maximum. Turning to `CCNCCOc1ccc(/C(=C(/Cl)c2ccccc2)c2ccccc2)cc1` [(E)-DE-Clom, (E)-N-desethylclomiphene], the “AUClast reduction during concomitant clarithromycin” value in [1] (PM) is recorded as ~ 34%. Besides, in the data set on CYP2D6 [2] (as incorporated in the model), the “CYP2D6 contribution to the formation of the desethyl metabolite” value was ~ 20%. Besides, the Km in the data set on CYP2D6 [2] (ref [17, 18] of supplement, read-out: CYP2D6 Km → (E)-4-OH-DE-Clom) was 0.49 µM; with CYP2D6 [2] (setting [8]), 0.97 µM; with CYP3A4 (read-out: CYP3A4 Km → undef.), 0.97 µM. In the data set on CYP3A4 (from measured in vitro metabolic enzyme activities), the “ratio kcat,CYP3A4 / kcat,CYP2D6 for metabolism to (E)-N,N-didesethylclomiphene” value is reported as 0.13. In addition, the “IVSF, CYP2D6-mediated pathway → undef.” value with CYP2D6 [3] (AS=0, mean value assumed) turned out to be 0; with CYP2D6 [3] (AS=0.5, mean value assumed), 0.17; in the data set on CYP2D6 [3] (AS=0.75, mean value assumed), 0.23; with CYP2D6 [3] (AS=1, mean value assumed), 0.51; in the data set with CYP2D6 [3] (AS=2 (NM, reference)), 1; in the data set on CYP2D6 [3] (AS=3, mean value assumed), 1.41. The “IVSF, CYP2D6-mediated pathway → (E)-4-OH-DE-Clom” value came out at 0 in the data set with CYP2D6 [3] (AS=0, relative to NM, from in vitro formation rates, supplement ref [17]); 0.16 in the data set on CYP2D6 [3] (AS=0.5, relative to NM, from in vitro formation rates, supplement ref [17]); 0.19 in the data set with CYP2D6 [3] (AS=0.75, relative to NM, from in vitro formation rates, supplement ref [17]); 0.44 with CYP2D6 [3] (AS=1, relative to NM, from in vitro formation rates, supplement ref [17]); 1 with CYP2D6 [3] (AS=2 (NM, reference)); 1.30 in the data set on CYP2D6 [3] (AS=3, relative to NM, from in vitro formation rates, supplement ref [17]). Also, the “Solubility (pH 6.5)” value in data set [4] was 0.46 mg/ml. Moreover, the “pKa (base), literature” value in data set [4] was 9.59.

For the molecule `CCN(CC)CCOc1ccc(/C(=C(/Cl)c2ccccc2)c2ccc(O)cc2)cc1` [(E)-4-OH-Clom, (E)-4-hydroxyclomiphene], the “fu (fraction unbound), literature” value in data set [5] is recorded as 0.6%. Also, the IC50 on estrogen receptor is 2.2 nM. Further, the “order of AUClast across CYP2D6 phenotypes” value in data set [1] (DGI setting) is on record as “AUCIM (AS = 0.5) > AUCNM > AUCUM > AUCPM”. Also, in data set [1] (PM), the “observed AUClast effect ratio in clarithromycin DDGI scenario vs control” value is on record as ~ 1.3 fold. Also, in data set [1] (all phenotypes except for PM), the “Cmax change due to inhibition of CYP2D6 by paroxetine” value is given as “decreased”. For the same molecule, in data set [1] (clarithromycin, all phenotypes), the “AUClast change during CYP3A4 inhibition” value was “slight increase”. The Michaelis-Menten constant (Km) was 3.6 µM with CYP2D6 [2] (setting [8]) and 3.4 µM in the data set on CYP3A4 (read-out: CYP3A4 Km → (E)-4-OH-DE-Clom). The “IVSF, CYP2D6-mediated pathway → undef.” value was determined as 0 in the data set with CYP2D6 [3] (AS=0, mean value assumed); 0.17 in the data set with CYP2D6 [3] (AS=0.5, mean value assumed); 0.23 in the data set with CYP2D6 [3] (AS=0.75, mean value assumed); 0.51 with CYP2D6 [3] (AS=1, mean value assumed); 1 with CYP2D6 [3] (AS=2 (NM, reference)); 1.41 in the data set with CYP2D6 [3] (AS=3, mean value assumed). Further, in data set [6], the “maximum plasma concentration (Cmax) in CYP2D6 PM compared with NM” value is “approximately ten-fold lower”. Also, the “Solubility (pH 6.5)” value in data set [4] was 0.06 mg/ml. Besides, the “pKa (base), literature” value in data set [4] is listed as 9.41. Further, the “pKa (acid)” value in [4] (ref [34]) is 8.64.

As for `CCN(CC)CCOc1ccc(C(=C(Cl)c2ccccc2)c2ccccc2)cc1` [clomiphene, Clomiphene], in data set [7] (CYP2D6 IM), the “response to clomiphene therapy” value is recorded as “all CYP2D6 intermediate metabolizers (IM) responded”. In addition, the “non-responders to clomiphene therapy” value in data set [7] (CYP2D6 NM) is reported as 30%. In [7], the “women who do not respond during clomiphene therapy” value was 8–54%.
